# Results as given in paper PMC4366844, “Biochemical and Pharmacological Characterizations of ESI-09 Based EPAC Inhibitors: Defining the ESI-09 “Therapeutic Window”” (Scientific Reports, 2015).
# Values joined by “and” are separate entries in the source; they are usually repeats but may differ in a detail not shown here. Equal entries are not always repeated. “Also recorded” adds a separate entry of the source. Where two headings read alike, the source gives them in different places.
# Columns and labels:
# EPAC2 [1] = target: T1, EPAC2 (Mus musculus, UniProt Q9EQZ6); assay: 8-NBD-cAMP competition assay; format: binding
# T1 construct: made in house
# T1 sequence (Q9EQZ6 1-1011): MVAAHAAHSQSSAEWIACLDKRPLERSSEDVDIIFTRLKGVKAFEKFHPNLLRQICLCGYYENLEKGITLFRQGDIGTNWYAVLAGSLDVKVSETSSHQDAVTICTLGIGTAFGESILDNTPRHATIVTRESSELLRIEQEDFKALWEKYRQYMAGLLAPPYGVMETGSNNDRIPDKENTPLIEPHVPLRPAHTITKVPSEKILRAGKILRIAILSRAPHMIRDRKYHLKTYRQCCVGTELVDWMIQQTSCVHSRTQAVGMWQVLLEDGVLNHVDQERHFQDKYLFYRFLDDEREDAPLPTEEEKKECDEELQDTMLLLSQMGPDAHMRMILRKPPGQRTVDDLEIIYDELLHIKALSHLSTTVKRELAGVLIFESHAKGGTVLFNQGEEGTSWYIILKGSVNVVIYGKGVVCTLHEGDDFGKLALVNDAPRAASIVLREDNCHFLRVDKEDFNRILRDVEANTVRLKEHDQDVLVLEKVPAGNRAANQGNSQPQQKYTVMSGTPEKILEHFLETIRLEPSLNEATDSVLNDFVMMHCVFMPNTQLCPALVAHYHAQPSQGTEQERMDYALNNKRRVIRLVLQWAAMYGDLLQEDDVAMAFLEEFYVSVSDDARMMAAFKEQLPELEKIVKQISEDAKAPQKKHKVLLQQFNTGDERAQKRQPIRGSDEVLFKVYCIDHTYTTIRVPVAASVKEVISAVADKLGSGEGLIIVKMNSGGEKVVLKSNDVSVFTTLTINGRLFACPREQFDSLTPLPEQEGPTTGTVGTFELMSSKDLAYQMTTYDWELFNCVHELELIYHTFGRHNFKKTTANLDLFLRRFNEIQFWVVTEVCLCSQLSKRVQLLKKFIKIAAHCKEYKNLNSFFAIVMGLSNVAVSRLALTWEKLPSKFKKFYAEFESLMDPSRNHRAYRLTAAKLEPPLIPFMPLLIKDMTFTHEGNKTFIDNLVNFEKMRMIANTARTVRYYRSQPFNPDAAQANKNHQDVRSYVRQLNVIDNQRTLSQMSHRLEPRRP
# Experimental: Test compounds at various concentrations were added to the reaction mix, and fluorescence intensity signals from the 8-NBD probe before and after the addition of test compounds was monitored using a SpectaMaxM2 microplate reader (Molecular Devices, Silicon Valley, CA, USA) with excitation/emission wavelengths set at 470/540 nm.
# EPAC2 [2] = target: T1, EPAC2; assay: In vitro GEF activity assay (Rap1b-BODIPY-GDP), EPAC2; format: biochemical; details: for mode of inhibition toward cAMP: cAMP titration with 5 µM ESI-09 or 1 µM HJC0726
# full-length EPAC1 = target: T2, full-length EPAC1 (Homo sapiens, UniProt O95398); assay: In vitro GEF activity assay (Rap1b-BODIPY-GDP), EPAC1; format: biochemical; details: vs ESI-09
# T2 construct: made in house
# T2 sequence (O95398 1-881 isoform O95398-3): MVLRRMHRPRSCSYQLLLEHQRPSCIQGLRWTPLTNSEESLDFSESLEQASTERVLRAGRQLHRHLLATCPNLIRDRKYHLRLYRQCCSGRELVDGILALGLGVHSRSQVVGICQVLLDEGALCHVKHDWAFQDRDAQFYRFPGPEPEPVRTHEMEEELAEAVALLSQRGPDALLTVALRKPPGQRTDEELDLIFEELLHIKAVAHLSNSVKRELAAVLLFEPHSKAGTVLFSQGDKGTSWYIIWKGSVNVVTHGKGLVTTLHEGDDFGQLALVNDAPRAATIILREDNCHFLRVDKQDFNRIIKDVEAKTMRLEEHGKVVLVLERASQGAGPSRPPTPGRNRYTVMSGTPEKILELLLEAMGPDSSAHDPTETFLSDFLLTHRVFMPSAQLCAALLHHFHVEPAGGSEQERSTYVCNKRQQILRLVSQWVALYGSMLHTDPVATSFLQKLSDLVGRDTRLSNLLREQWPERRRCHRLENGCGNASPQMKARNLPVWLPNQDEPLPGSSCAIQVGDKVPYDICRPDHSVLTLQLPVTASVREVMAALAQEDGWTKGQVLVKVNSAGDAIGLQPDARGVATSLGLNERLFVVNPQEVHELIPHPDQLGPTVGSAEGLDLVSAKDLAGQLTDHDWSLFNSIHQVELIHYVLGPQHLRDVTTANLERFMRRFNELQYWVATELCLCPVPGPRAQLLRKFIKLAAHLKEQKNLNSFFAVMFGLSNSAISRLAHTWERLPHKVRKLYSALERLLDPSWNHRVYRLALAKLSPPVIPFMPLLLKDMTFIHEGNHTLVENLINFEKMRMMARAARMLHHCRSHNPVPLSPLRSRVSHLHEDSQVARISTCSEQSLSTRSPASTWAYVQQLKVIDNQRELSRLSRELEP
# Source text: The guanine nucleotide exchange activity of EPAC proteins can be biochemically determined using a coupled exchange assay, in which Rap1 loaded with a fluorescent GDP analog, 2′-/3′-O-(N′-methylanthraniloyl)guanosine-5′-O-diphosphate (MANT-GDP), is used as the substrate. The exchange of Rap1-bound MANT-GDP by free unlabeled GDP leads to a decrease in fluorescence as MANT-GDP contains an environment sensitive fluorophore, MANT, whose fluorescence intensity increases upon binding to Rap1. However, the MANT-GDP based GEF assay is not well suited for ESI-09 analogs because they absorb lights within the excitation emission wavelengths of the fluorophore.
# Recombinant full-length human EPAC1, mouse EPAC2 and C-terminal truncated Rap1B(1-167) were purified as described previously.
# In vitro EPAC GEF activity was measured as previously described with the exception that purified Rap1B(1-167) was loaded with BODIPY-GDP instead of MANT-GDP[39]. […] The exchange reaction was monitored using a Spectramax M2 Plate Reader (Molecular Devices) with the excitation and emission wavelengths set at 485 and 515 nm, respectively. […]
# [3] = Solubility measurement by HPLC analysis; format: physicochemical
# Experimental: ESI-09 and its analogs were synthesized following the recently reported synthetic procedures. The solubility of the selected compounds was measured by HPLC analysis following the reported protocol.
# EPAC2 [4] = details: cited from earlier work
# EPAC2 [5] = target: T1, EPAC2; assay: Protein thermal denaturation assay (Sypro Orange), EPAC2
# Experimental: Thermal denaturation assay was performed using a BioRad CFX96 Touch^TM Real-Time PCR Detection system as described previously. […] Melting temperatures (Tm) were calculated by fitting the sigmoidal melt curve to the Boltzmann equation as described using GraphPad Prism, with R^2 values of >0.99[40].
# EPAC1h 149-318 = target: T3, EPAC1h 149-318 (Homo sapiens, UniProt O95398); assay: {15N,1H} HSQC NMR of EPAC1 cAMP binding domain
# T3 construct: the CBD of human EPAC1 (aa. 149-318); made in house
# T3 sequence (O95398 149-318 isoform O95398-3): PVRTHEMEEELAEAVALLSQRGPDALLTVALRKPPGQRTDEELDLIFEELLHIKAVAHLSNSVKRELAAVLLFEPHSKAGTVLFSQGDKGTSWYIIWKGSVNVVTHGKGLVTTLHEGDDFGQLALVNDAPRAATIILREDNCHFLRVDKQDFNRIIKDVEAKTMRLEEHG
# Source text: In addition to the thermo-unfolding experiments, {^15N, ^1H} Heteronuclear Single Quantum Coherence (HSQC) spectra were acquired to characterize the interaction between ESI-09 and the CBD of human EPAC1 (aa. 149-318) and address whether ESI-09 acts as a non-specific denaturant. The {^15N, ^1H} chemical shifts serve as excellent sensors for protein structure and dynamics as they provide information about the local chemical environment surrounding the amides of every amino acid (except prolines) within the protein. EPAC1h (149-318) has already been extensively analyzed by NMR spectroscopy. It results in HSQC spectra with well-dispersed peaks, which are representative of a fully folded protein (Fig. 5A). […]
# EPAC1h 149-318 was expressed and purified using previously documented protocols[24][25][26][27] and dialyzed into NMR buffer (50 mM Tris, 50 mM NaCl, 2 mM EDTA, 2 mM EGTA, 1 mM DTT and 0.02% NaN3, pH 7.6). […] Gradient- and sensitivity- enhanced {^15N, ^1H} heteronuclear single quantum coherence (HSQC) spectra with 128 (t1) and 1024 (t2) complex points and spectral widths of 31.82 and 14.06 ppm for the ^15N and ^1H dimensions, respectively, were recorded with 8 scans and a recycle delay of 1 s. […] All spectra were processed with NMRPipe[41] and analyzed in Sparky[42].
# fatal rickettsioses = details: mice, daily dose of 10 mg/kg IP or 50 mg/kg oral gavage; cited from earlier work
# [6] = tested on: ovalbumin-induced oral tolerance; details: mice, daily dose of 10 mg/kg IP or 50 mg/kg oral gavage; cited from earlier work
# [7] = tested on: pancreatic ductal adenocarcinoma; details: in vivo administration; cited from earlier work
# [8] = design: method as in Our recent studies; details: ref Our recent studies; cited from earlier work
# [9] = 50 nM EPAC2, 60 nM 8-NBD-cAMP, read-out: IC50, potency in competing with 8-NBD-cAMP binding to EPAC2
# [10] = water, read-out: Solubility in water (converted)
smiles,measurement,setting,value
CC(C)(C)c1cc(C(=O)/C(C#N)=N/Nc2cc(Cl)ccc2Cl)no1 [HJC0696],IC50,EPAC2 [1]; [9],7.3 ± 1.2 µM
CC(C)(C)c1cc(C(=O)/C(C#N)=N/Nc2cccc(Cl)c2Cl)no1 [HJC0750],IC50,EPAC2 [1]; [9],35.6 ± 7.8 µM
CC(C)(C)c1cc(C(=O)/C(C#N)=N/Nc2cc(Cl)cc(Cl)c2)no1 [HJC0726],IC50,EPAC2 [1]; [9],1.9 ± 0.3 µM
same,increase in potency relative to ESI-09 in the 8-NBD-cAMP competition assay,EPAC2 [1]; vs ESI-09,5 fold
same,mode of inhibition toward cAMP,EPAC2 [2],reversible competitive EPAC2 inhibitors
same,potency relative to ESI-09 in inhibiting EPAC2,EPAC2 [2]; vs ESI-09,five-fold more potent
same,potency relative to ESI-09 in inhibiting EPAC1,full-length EPAC1,five-fold more potent
same,solubility,"[3]; ethanol, organic solvent or mixture, read-out: Solubility in ethanol (converted)",6800 µg/mL and 18600 µM
same,solubility,[3]; [10],45.4 µg/mL and 124 µM
CC(C)(C)c1cc(C(=O)/C(C#N)=N/Nc2ccc(Cl)c(Cl)c2)no1 [HJC0777],IC50,EPAC2 [1]; [9],3 ± 0.6 µM
Cc1ccc(S(=O)(=O)c2c(C)cc(C)cc2C)cc1 [ESI-05],EPAC isoform selectivity,EPAC2 [4],exclusively selective for EPAC2
CC(C)(C)c1cc(C(=O)/C(C#N)=N/Nc2ccccc2)no1 [HJC0695],IC50,EPAC2 [1],59.8 ± 9.4 µM
"CC(C)(C)c1cc(C(=O)C(C#N)=NNc2cccc(Cl)c2)no1 [ESI-09, 3-[5-(tert-butyl)isoxazol-3-yl]-2-[2-(3-chlorophenyl) hydrazono] -3-oxopropanenitrile]",IC50,EPAC2 [1]; [9],9 ± 1.2 µM
same,mode of inhibition toward cAMP,EPAC2 [2],reversible competitive EPAC2 inhibitors
same,solubility,"[3]; ethanol, organic solvent or mixture, ethanol, read-out: Solubility in ethanol (converted)",15000 µg/mL and 45300 µM
same,solubility,[3]; [10],5.95 ± 0.83 µg/mL
same,effect on Tm of EPAC2,"EPAC2 [5]; ESI-09 1-20 µM, no cAMP",didn't shift the Tm to lower temperature; also recorded: no significant difference in thermo-denaturation
same,effect on Tm of EPAC2,EPAC2 [5]; ESI-09 in the presence of 100 µM cAMP,didn't lead to further changes in Tm
same,effect on HSQC spectrum of EPAC1h 149-318,"EPAC1h 149-318; 50 μM ESI-09, 100 μM protein",Only minor chemical shift changes
same,effect on HSQC spectrum of EPAC1h 149-318,"EPAC1h 149-318; 500 μM ESI-09, 100 μM protein",almost every peak broadens beyond detection
same,effect in fatal rickettsioses,fatal rickettsioses,protecting mice from fatal rickettsioses
same,effect on ovalbumin-induced oral tolerance,[6],compromising ovalbumin-induced oral tolerance
same,effect on pancreatic ductal adenocarcinoma invasion and metastasis,[7],inhibits pancreatic ductal adenocarcinoma invasion and metastasis
same,bioavailability,[8],excellent bioavailability
CC(C)(C)c1cc(C(=O)/C(C#N)=N/Nc2ccc(Cl)cc2)no1 [HJC0694],IC50,EPAC2 [1]; [9],26.5 ± 4.1 µM
CC(C)(C)c1cc(C(=O)/C(C#N)=N/Nc2ccccc2Cl)no1 [HJC0693],IC50,EPAC2 [1]; [9],28.3 ± 4 µM
"Nc1ncnc2c1ncn2[C@@H]1O[C@@H]2COP(=O)(O)O[C@H]2[C@H]1O [cAMP, reference compound]",melting temperature Tm of EPAC2,EPAC2 [5]; in the presence of 100 µM cAMP (about 48°C without),around 46 °C
